# Experimental data taken from PubChem BioAssay (NCI).
#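 96-well plates; 48 h exposure; 5 concentrations. Endpoints by linear interpolation between flanking doses. Not reached: highest tested concentration assigned. The concentration for 50% growth inhibition is given as GI50. TGI marks complete inhibition of growth.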
# What was measured:
# Experiment in all cases: growth of human tumour cells (NCI), 48 h
# [1] = system: HOP-62 NSCLC
# [2] = system: UO-31 renal
# [3] = system: NCI-H460 lung
# [4] = system: CCRF-CEM leukemia
# [5] = system: SR leukemia
# [6] = system: MDA-MB-231 breast
# [7] = system: BT-549 breast
# [8] = system: 786-0 renal
# [9] = system: SK-MEL-5 melanoma
# [10] = system: U251 CNS
# [11] = system: KM12 colon
# [12] = system: COLO 205 colon
# [13] = system: UACC-257 melanoma
# [14] = system: SK-MEL-2 melanoma
# [15] = system: HOP-92 NSCLC
# [16] = system: NCI/ADR-RES ovarian
# [17] = system: NCI-H522 lung
# [18] = system: HCC-2998 colon
# [19] = system: RPMI-8226 leukemia
# [20] = system: SF-539 CNS
# [21] = system: MDA-MB-435
# [22] = system: HCT-15 colon
# [23] = system: NCI-H23 lung
# [24] = system: SK-MEL-28 melanoma
# [25] = system: A549 NSCLC
# [26] = system: M14 melanoma
# [27] = system: PC-3 prostate
# [28] = system: UACC-62 melanoma
# [29] = system: K-562 leukemia
# [30] = system: HL-60(TB) leukemia
# [31] = system: SN12C renal
# [32] = system: MALME-3M melanoma
# [33] = system: RXF 393 renal
# [34] = system: OVCAR-8 ovarian
# [35] = system: MOLT-4 leukemia
# [36] = system: NCI-H226 lung
# [37] = system: SW-620 colon
# [38] = system: IGROV1 ovarian
# [39] = system: T-47D breast
# [40] = system: SNB-19 CNS
# [41] = system: HT29 colon
# [42] = system: HS 578T breast
# [43] = system: TK-10 renal
# [44] = system: HCT-116 colon
# [45] = system: MCF7 breast
# [46] = system: ACHN renal
# [47] = system: CAKI-1 renal
# [48] = system: OVCAR-4 ovarian
# [49] = system: OVCAR-3 ovarian
# [50] = system: DU-145 prostate
# [51] = system: SK-OV-3 ovarian
# [52] = system: SF-268 CNS
# [53] = system: SNB-75 CNS
# [54] = system: OVCAR-5 ovarian
# [55] = system: A498 renal
compound,measurement,setting,value
N=C(N)c1ccc(-c2ccc(-c3cccs3)s2)nc1,GI50,[1],1940 nM
same,TGI,[1],5170 nM
same,GI50,[2],545 nM
same,TGI,[2],3920 nM
same,GI50,[3],33.4 nM
same,TGI,[3],449 nM
same,GI50,[4],1780 nM
same,TGI,[4],4190 nM
same,GI50,[5],1270 nM
same,TGI,[5],5470 nM
same,GI50,[6],1550 nM
same,TGI,[6],3390 nM
same,GI50,[7],4790 nM
same,TGI,[7],16300 nM
same,GI50,[8],1670 nM
same,TGI,[8],3300 nM
same,GI50,[9],1800 nM
same,TGI,[9],3780 nM
same,GI50,[10],1660 nM
same,TGI,[10],3350 nM
same,GI50,[11],1880 nM
same,TGI,[11],3600 nM
same,GI50,[12],248 nM
same,TGI,[12],1090 nM
same,GI50,[13],1740 nM
same,TGI,[13],3500 nM
same,GI50,[14],2190 nM
same,TGI,[14],4200 nM
same,GI50,[15],460 nM
same,TGI,[15],2230 nM
same,GI50,[16],3110 nM
same,TGI,[16],14500 nM
same,GI50,[17],1610 nM
same,TGI,[17],3440 nM
same,GI50,[18],771 nM
same,TGI,[18],2080 nM
same,GI50,[19],434 nM
same,TGI,[19],2780 nM
same,GI50,[20],1570 nM
same,TGI,[20],3080 nM
same,GI50,[21],1740 nM
same,TGI,[21],3420 nM
same,GI50,[22],1930 nM
same,TGI,[22],4470 nM
same,GI50,[23],3670 nM
same,TGI,[23],18900 nM
same,GI50,[24],1700 nM
same,TGI,[24],3650 nM
same,GI50,[25],23 nM
same,TGI,[25],1280 nM
same,GI50,[26],1860 nM
same,TGI,[26],3630 nM
same,GI50,[27],1880 nM
same,TGI,[27],6110 nM
same,GI50,[28],1700 nM
same,TGI,[28],3220 nM
same,GI50,[29],1610 nM
same,TGI,[29],3810 nM
same,GI50,[30],1780 nM
same,TGI,[30],4010 nM
same,GI50,[31],1680 nM
same,TGI,[31],5380 nM
same,GI50,[32],1960 nM
same,TGI,[32],3570 nM
same,GI50,[33],1560 nM
same,TGI,[33],3540 nM
same,GI50,[34],1590 nM
same,TGI,[34],4060 nM
same,GI50,[35],1960 nM
same,TGI,[35],4130 nM
same,GI50,[36],2000 nM
same,TGI,[36],15800 nM
same,GI50,[37],1850 nM
same,TGI,[37],3930 nM
same,GI50,[38],1760 nM
same,TGI,[38],3560 nM
same,GI50,[39],2060 nM
same,TGI,[39],5570 nM
same,GI50,[40],3480 nM
same,TGI,[40],20800 nM
same,GI50,[41],1600 nM
same,TGI,[41],3830 nM
same,GI50,[42],1550 nM
same,TGI,[42],4660 nM
same,GI50,[43],1030 nM
same,TGI,[43],2330 nM
same,GI50,[44],1380 nM
same,TGI,[44],2790 nM
same,GI50,[45],1320 nM
same,TGI,[45],3300 nM
same,GI50,[46],1760 nM
same,TGI,[46],3330 nM
same,GI50,[47],2130 nM
same,TGI,[47],6830 nM
same,GI50,[48],944 nM
same,TGI,[48],3320 nM
same,GI50,[49],234 nM
same,TGI,[49],2310 nM
same,GI50,[50],1800 nM
same,TGI,[50],4040 nM
same,GI50,[51],1560 nM
same,TGI,[51],5880 nM
same,GI50,[52],2740 nM
same,TGI,[52],10700 nM
same,GI50,[53],1780 nM
same,TGI,[53],4520 nM
same,GI50,[54],1260 nM
same,TGI,[54],5680 nM
same,GI50,[55],165 nM
same,TGI,[55],740 nM
